Bounds are passed on as bounds.

Experiment [1] concerns drug-resistant bacteria. To be noted: cited from earlier work.
Experiment [2] concerns Staphylococcus aureus FDA 209P. Nature of the experiment: MIC, serial dilution on nutrient agar. To be noted: FDA209P; Staphylococcus aureus FDA 209P; nutrient agar, 37°C, 18 hours; read-out: Minimum Inhibitory Concentrations. The format is cell-based.
Experiment [3] relates to Mycobacterium smegmatis ATCC 607. The experiment can be described thus: MIC, serial dilution on nutrient agar. The format is cell-based. Conditions: Mycolicibacterium smegmatis, ATCC607; Mycobacterium smegmatis ATCC 607; nutrient agar, 37°C, 18 hours; read-out: Minimum Inhibitory Concentrations.
For experiment [4], the system named is Escherichia coli K-12 ML 1630. Nature of the experiment: MIC, serial dilution on nutrient agar. The format is cell-based. Conditions: K12ML1630, 37°C, 18 hours, read-out: Minimum Inhibitory Concentrations. How it is done: The minimum inhibitory concentrations (mcg/ml) of 1,2'-di-N-[(S)-4-amino-2-hydroxybutyryl]-kanamycin B (abbreviated as 1,2'-AHB-KMB), 1,2'-di-N-[(S)-4-amino-2-hydroxybutyryl]-3',4'-dideoxykanamycin B (abbreviated as 1,2'-AHB-DKB), 1,2'-di-N-DL-isoseryl-3',4'-dideoxykanamycin B (abbreviated as 1,2'-IS-DKB) and 1,2'-di-N-DL-isoseryl-kanamycin B (abbreviated as 1,2'-IS-KMB) against various microorganisms were determined according to serial dilution method using nutrient agar medium at 37°C, the estimation being effected after 18 hours incubation. For comparison, the minimum inhibitory concentrations of kanamycin B (abbreviated as KMB) and 3',4'-dideoxykanamycin B (abbreviated as DKB) were also determined in the same manner as mentioned above.

The subject of experiment [5] is Klebsiella pneumoniae PCI 602. The experiment can be described thus: MIC, serial dilution on nutrient agar. Conditions: PCI602; Klebsiella pneumoniae PCI 602; nutrient agar, 37°C, 18 hours; read-out: Minimum Inhibitory Concentrations. The format is cell-based.
Experiment [6] deals with Klebsiella pneumoniae 22 -3038. The experiment can be described thus: MIC, serial dilution on nutrient agar. To be noted: 223038; Klebsiella pneumoniae 22 -3038; nutrient agar, 37°C, 18 hours; read-out: Minimum Inhibitory Concentrations. The format is cell-based.
Experiment [7] concerns Escherichia coli NIHJ. Nature of the experiment: MIC, serial dilution on nutrient agar. The format is cell-based. To be noted: Escherichia coli NIHJ; nutrient agar, 37°C, 18 hours; read-out: Minimum Inhibitory Concentrations.
Experiment [8] deals with Escherichia coli K-12. The experiment can be described thus: MIC, serial dilution on nutrient agar. Conditions: K12; Escherichia coli K-12; nutrient agar, 37°C, 18 hours; read-out: Minimum Inhibitory Concentrations. The format is cell-based.
Experiment [9] has as its system Escherichia coli K-12 ML 1629. The experiment can be described thus: MIC, serial dilution on nutrient agar. The format is cell-based. To be noted: K12ML1629; Escherichia coli K-12 ML 1629; nutrient agar, 37°C, 18 hours; read-out: Minimum Inhibitory Concentrations.
Experiment [10] deals with Escherichia coli K-12 ML 1410. Nature of the experiment: MIC, serial dilution on nutrient agar. The format is cell-based. Conditions: K12ML1410; Escherichia coli K-12 ML 1410; nutrient agar, 37°C, 18 hours; read-out: Minimum Inhibitory Concentrations.
For experiment [11], the system named is Escherichia coli LA290 R55. Nature of the experiment: MIC, serial dilution on nutrient agar. The format is cell-based. To be noted: LA290R55, 18 h, read-out: Minimum Inhibitory Concentrations.
Experiment [12] relates to Escherichia coli LA290 R56. The experiment can be described thus: MIC, serial dilution on nutrient agar. The format is cell-based. Conditions: LA290R56, 18 h, read-out: Minimum Inhibitory Concentrations.
The subject of experiment [13] is Escherichia coli LA290 R64. The experiment can be described thus: MIC, serial dilution on nutrient agar. The format is cell-based. To be noted: LA290R64, 18 h, read-out: Minimum Inhibitory Concentrations.
Experiment [14] relates to Escherichia coli W677. Nature of the experiment: MIC, serial dilution on nutrient agar. The format is cell-based. Conditions: Escherichia coli W677; nutrient agar, 37°C, 18 hours; read-out: Minimum Inhibitory Concentrations.
Experiment [15] concerns Escherichia coli JR66/W677. Nature of the experiment: MIC, serial dilution on nutrient agar. The format is cell-based. To be noted: Escherichia coli JR66/W677; nutrient agar, 37°C, 18 hours; read-out: Minimum Inhibitory Concentrations.
In experiment [16] the test system is Pseudomonas aeruginosa A3. Nature of the experiment: MIC, serial dilution on nutrient agar. The format is cell-based. Conditions: Pseudomonas aeruginosa A3; nutrient agar, 37°C, 18 hours; read-out: Minimum Inhibitory Concentrations.
Experiment [17] relates to Pseudomonas aeruginosa No.12. Nature of the experiment: MIC, serial dilution on nutrient agar. Conditions: Pseudomonas aeruginosa No.12; nutrient agar, 37°C, 18 hours; read-out: Minimum Inhibitory Concentrations. The format is cell-based.
Experiment [18] concerns Pseudomonas aeruginosa TI-13. The experiment can be described thus: MIC, serial dilution on nutrient agar. The format is cell-based. To be noted: TI13; Pseudomonas aeruginosa TI-13; nutrient agar, 37°C, 18 hours; read-out: Minimum Inhibitory Concentrations.
For experiment [19], the system named is Pseudomonas aeruginosa GN315. Nature of the experiment: MIC, serial dilution on nutrient agar. The format is cell-based. To be noted: Pseudomonas aeruginosa GN315; nutrient agar, 37°C, 18 hours; read-out: Minimum Inhibitory Concentrations.
The test system of experiment [20] is Pseudomonas aeruginosa 99. Nature of the experiment: MIC, serial dilution on nutrient agar. To be noted: Pseudomonas aeruginosa 99; nutrient agar, 37°C, 18 hours; read-out: Minimum Inhibitory Concentrations. The format is cell-based.

Regarding `NC[C@@H]1CC[C@@H](N)[C@@H](O[C@H]2[C@H](O[C@@H]3O[C@H](CO)[C@@H](O)[C@H]3O)[C@@H](O)[C@H](N)C[C@@H]2N)O1` [3',4'-dideoxyribostamycin], in [1], the “antibacterial activity against the drug-resistant bacteria” value (“antibacterial activity” for short) is given as “improved antibacterial activity”.

Regarding `NC[C@@H]1CC[C@@H](N)[C@@H](O[C@H]2[C@H](O)[C@@H](O)[C@H](N)C[C@@H]2N)O1` [3',4'-dideoxyneamine], in experiment [1], the “antibacterial activity” value is reported as “improved antibacterial activity”.

Take `CNC[C@H]1O[C@H](O[C@H]2[C@H](O)[C@@H](O[C@H]3O[C@H](CO)[C@@H](O)[C@H](N)[C@H]3O)[C@H](N)C[C@@H]2N)[C@H](N)C[C@@H]1O` [3'-deoxy-6'-N-methylkanamycin B]: the “antibacterial activity” value in [1] was “improved antibacterial activity”.

With `NCC(O)C(=O)N[C@@H]1CC[C@@H](CN)O[C@@H]1O[C@H]1[C@H](O)[C@@H](O[C@H]2O[C@H](CO)[C@@H](O)[C@H](N)[C@H]2O)[C@H](NC(=O)C(O)CN)C[C@@H]1N` (mixture of isomers) [1,2'-IS-DKB, 1,2'-di-N-DL-isoseryl-3',4'-dideoxykanamycin B], the MIC in experiment [2] turned out to be 1.56 µg/mL; in [3], 1.56 µg/mL; in experiment [4] it was 6.25 µg/mL; in experiment [5] it was 3.13 µg/mL; in [6] it was 12.5 µg/mL; in [7], 6.25 µg/mL. Also, the MIC in [8], in experiment [9], in [10], in experiment [11], in experiment [12] and in experiment [13] was 6.25 µg/mL each time. In addition, the MIC in [14] was 3.13 µg/mL; in experiment [15], 12.5 µg/mL; in experiment [16], 6.25 µg/mL; in experiment [17] it was 25 µg/mL; in experiment [18] it was 12.5 µg/mL; in experiment [19], greater than 100 µg/mL. In experiment [20], the MIC came to 50 µg/mL.

As to `NC[C@H]1O[C@H](O[C@H]2[C@H](O)[C@@H](O)[C@H](N)C[C@@H]2N)[C@H](N)C[C@@H]1O` [3'-deoxyneamine], in experiment [1], the “antibacterial activity” value is recorded as “improved antibacterial activity”.

For `NC[C@H]1O[C@H](O[C@H]2[C@H](O)[C@@H](O[C@H]3O[C@H](CO)[C@@H](O)[C@H](N)[C@H]3O)[C@H](N)C[C@@H]2N)[C@H](N)C[C@@H]1O` [3'-deoxykanamycin B], the “antibacterial activity” value in experiment [1] was “improved antibacterial activity”.

Regarding `NC[C@H]1O[C@H](O[C@H]2[C@H](O[C@@H]3O[C@H](CO)[C@@H](O)[C@H]3O)[C@@H](O)[C@H](N)C[C@@H]2N)[C@H](N)C[C@@H]1O` [3'-deoxyribostamycin], the “antibacterial activity” value in experiment [1] was “improved antibacterial activity”.

Turning to `NCC(O)C(=O)N[C@H]1[C@@H](O[C@H]2[C@H](O)[C@@H](O[C@H]3O[C@H](CO)[C@@H](O)[C@H](N)[C@H]3O)[C@H](NC(=O)C(O)CN)C[C@@H]2N)O[C@H](CN)[C@@H](O)[C@@H]1O` (mixture of isomers) [1,2'-IS-KMB, 1,2'-di-N-DL-isoseryl-kanamycin B], the MIC in experiment [2] was 3.13 µg/mL; in experiment [3], 1.56 µg/mL; in experiment [4], 6.25 µg/mL; in experiment [5] it was 3.13 µg/mL; in experiment [6], 12.5 µg/mL; in [7] it was 6.25 µg/mL. For the same compound, the MIC in [8], in experiment [9], in experiment [10], in experiment [11], in experiment [12] and in experiment [13] was 6.25 µg/mL throughout. The MIC in experiment [14] is 3.13 µg/mL; in experiment [15] it was 25 µg/mL; in [16], 12.5 µg/mL; in [17] it was 25 µg/mL; in experiment [18], 12.5 µg/mL; in experiment [19], greater than 100 µg/mL. The MIC in [20] turned out to be 50 µg/mL.

Values taken from patent US3940382A, “1,2'-Di-N-substituted kanamycin B compounds” (Zaidan Hojin Biseibutsu Kagaku Kenkyu Kai, priority 1973, dated 1976).
